Test results: patent publication US20170334899A1, “AMINO-SUBSTITUTED ISOTHIAZOLES” (Bayer Pharma Aktiengesellschaft, priority 2014, published 2017)
pIC50: −log10 of the molar value.

Experiments:
Assay type in all cases: cell-based
[1] = test system: human cervical tumor cell line HeLa (ATCC CCL-2); assay: SAC-Formation - Nocodazole-Induced Assay; conditions: Homo sapiens, HeLa, 24 h, HeLa cells, nocodazole 0.1 μg/ml together with test compound, decrease of mitotic cells (phospho-histone H3 Ser10)
Source text: (§1) The spindle assembly checkpoint assures the proper segregation of chromosomes during mitosis. Upon entry into mitosis, chromosomes begin to condensate which is accompanied by the phosphorylation of histone H3 on serine 10. Dephosphorylation of histone H3 on serine 10 begins in anaphase and ends at early telophase. Accordingly, phosphorylation of histone H3 on serine 10 can be utilized as a marker of cells in mitosis. Nocodazole is a microtubule destabilizing substance. Paclitaxel is a microtubule stabilizing compound. Thus, nocodazole as well as paclitaxel interfere with microtubule dynamics and mobilize the spindle assembly checkpoint. […] The mitotic breakthrough can be detected by the decrease of cells with phosphorylation of histone H3 on serine 10. This decline is used as a marker to determine the capability of compounds of the present invention to induce a mitotic breakthrough. The typical morphological alteration of nuclei with a prematurely completed mitosis after SAC-inhibition can be monitored via image analysis routines supporting those findings.
(§2) The nocodazole and paclitaxel variations were used to focus on compounds that are capable of inhibiting a SAC induced by both microtubule destabilization as well as microtubule stabilization. When SAC inducing agents and compounds are given simultaneously inhibitors that effectively block the SAC during formation or abrogation are identified. When cells are incubated with a SAC inducing agent and the SAC interfering compound is given after a defined time, inhibitors are identified that effectively block SAC abrogation.
(§3) Cultivated cells of the human cervical tumor cell line HeLa (ATCC CCL-2) were plated at a density of 1000 cells/well in a 1536-well microtiter plate in 2 μl PAA Ham's F12 Medium supplemented with 1% (v/v) glutamine, 1% (v/v) penicillin, 1% (v/v) streptomycin and 10% (v/v) fetal calf serum. After incubation overnight at 37° C., 10 μl/well nocodazole at a final concentration of 0.1 μg/ml were added to cells. Test compounds solubilized in dimethyl sulfoxide (DMSO) were added at various concentrations (0 μM, as well as in the range of 0.005 μM-20 μM; the final concentration of the solvent DMSO was 0.5% (v/v)). Cells were incubated for 24 h at 37° C. in the presence of test compounds in combination with nocodazole. Thereafter, cells were fixed in 4% (v/v) paraformaldehyde in phosphate buffered saline (PBS) at 4° C. overnight then permeabilized in 0.1% (v/v) Triton X™ 100 in PBS at room temperature for 20 min and blocked in 0.5% (v/v) bovine serum albumin (BSA) in PBS at room temperature for 15 min. After washing with PBS, 5 μl/well antibody solution (anti-phospho-histone H3 clone 3H10, FITC; Millipore, Cat#16-222; 1:1000 dilution) was added to cells, which were incubated for 2 h at room temperature. Afterwards, cells were washed with PBS and 5 μl/well solution of HOECHST 33342 dye (5 μg/ml) was added to cells and cells were incubated 15 min at room temperature in the dark. Cells were washed twice with PBS then covered with PBS and stored at 4° C. until analysis. Images were acquired with a PERKIN ELMER OPERA™ High-Content Analysis reader. Images were analyzed with image analysis software MetaXpress™ from Molecular devices utilizing the Mitotic Index application module. In this assay both labels HOECHST 33342 and phosphorylated Histone H3 on serine 10 were measured. HOECHST 33342 labels the DNA and is used to count the cell number. The staining of phosphorylated Histone H3 on serine 10 determines the number of mitotic cells. […] Otherwise cells were arrested at G2/M phase of the cell cycle progression. The raw assay data were further analyzed by four-parametric hill equation using Genedata's Assay Analyzer and Condoseo software.

HeLa = assay: Proliferation assay (crystal violet), HeLa; conditions: Homo sapiens, HeLa, 96 h, HeLa cells; 4 days incubation; crystal violet staining; read-out: IC50 inhibition of proliferation, HeLa
Procedure: Cultivated tumor cells (cells were ordered from ATCC, except HeLa-MaTu and HeLa-MaTu-ADR, which were ordered from EPO-GmbH, Berlin) were plated at a density of 1000 to 5000 cells/well, depending on the growth rate of the respective cell line, in a 96-well multititer plate in 200 μL of their respective growth medium supplemented 10% fetal calf serum. After 24 hours, the cells of one plate (zero-point plate) were stained with crystal violet (see below), while the medium of the other plates was replaced by fresh culture medium (200 μl), to which the test substances were added in various concentrations (0 μM, as well as in the range of 0.001-10 μM; the final concentration of the solvent dimethyl sulfoxide was 0.5%). The cells were incubated for 4 days in the presence of test substances. Cell proliferation was determined by staining the cells with crystal violet: the cells were fixed by adding 20 μl/measuring point of an 11% glutaric aldehyde solution for 15 minutes at room temperature. After three washing cycles of the fixed cells with water, the plates were dried at room temperature. The cells were stained by adding 100 μl/measuring point of a 0.1% crystal violet solution (pH 3.0). After three washing cycles of the stained cells with water, the plates were dried at room temperature. The dye was dissolved by adding 100 μl/measuring point of a 10% acetic acid solution. Absorbtion was determined by photometry at a wavelength of 595 nm. The change of cell number, in percent, was calculated by normalization of the measured values to the aborbtion values of the zero-point plate (=0%) and the absorbtion of the untreated (0 μm) cells (=100%). The IC50 values were determined by means of a 4 parameter fit.

[2] = test system: human cervical tumor cell line HeLa (ATCC CCL-2); assay: SAC-Formation - Paclitaxel-Induced Assay; conditions: Homo sapiens, HeLa, 24 h, HeLa cells, paclitaxel 0.05 μM, test range 0.005 μM-20 μM, read-out: IC50 [mol/l] SAC-Formation - Paclitaxel-Induced Assay
Source text: as §1, §2
Cultivated cells of the human cervical tumor cell line HeLa (ATCC CCL-2) were plated at a density of 1000 cells/well in a 1536-well microtiter plate in 2 μl PAA
as §3, with “Ham's” for “Cultivated cells of the human cervical tumor cell line HeLa (ATCC CCL-2) were plated at a density of 1000 cells/well in a 1536-well microtiter plate in 2 μl PAA Ham's”, “paclitaxel” for “nocodazole”, “0.05 μM” for “0.1 μg/ml”, “μM -20” for “μM-20”, “paclitaxel.” for “nocodazole.”

Row | Compound | pIC50 [1] | pIC50 (HeLa) | pIC50 [2]
1 | Cc1nsc(Nc2cnc3ccccc3n2)c1C(=O)Nc1cccc(C(=O)NCCCN2CCCC2=O)c1 [Example 60, 3-Methyl-N-(3-{[3-(2-oxopyrrolidin-1-yl)propyl]carbamoyl}phenyl)-5-(quinoxalin-2-ylamino)-1,2-thiazole-4-carboxamide] | 6.51 | 5.00 | 6.62
2 | CC(=O)N1CCN(C(=O)c2cccc(NC(=O)c3c(C)nsc3Nc3cnc4ccccc4n3)c2)CC1 [Example 70, N-{3-[(4-Acetylpiperazin-1-yl)carbonyl]phenyl}-3-methyl-5-(quinoxalin-2-ylamino)-1,2-thiazole-4-carboxamide] | 5.66 | 5.00 | 5.00
3 | C#CCN(C)C(=O)c1cccc(NC(=O)c2c(C)nsc2Nc2cnc3ccccc3n2)c1 [Example 62, 3-Methyl-N-{3-[methyl(prop-2-yn-1-yl)carbamoyl]phenyl}-5-(quinoxalin-2-ylamino)-1,2-thiazole-4-carboxamide] | 6.36 | 5.00 | 5.82
4 | Cc1nsc(Nc2cnc3ccccc3n2)c1C(=O)Nc1cccc(C(=O)N(C)CCO)c1 [Example 59, N-{3-[(2-hydroxyethyl)(methyl)carbamoyl]phenyl}-3-methyl-5-(quinoxalin-2-ylamino)-1,2-thiazole-4-carboxamide] | 5.47 | 5.00 | 4.70
5 | Cc1nsc(Nc2cnc3ccccc3n2)c1C(=O)Nc1cccc(C(=O)Nc2ccc3c(c2)OCO3)c1 [Example 63, N-[3-(1,3-Benzodioxol-5-ylcarbamoyl)phenyl]-3-methyl-5-(quinoxalin-2-ylamino)-1,2-thiazole-4-carboxamide] | 6.72 | 5.44 | 6.36
6 | Cc1nsc(Nc2cnc3ccccc3n2)c1C(=O)Nc1cccc(C(=O)N(C)CCCN(C)C)c1 [Example 68, N-(3-{[3-(Dimethylamino)propyl](methyl)carbamoyl}-phenyl)-3-methyl-5-(quinoxalin-2-ylamino)-1,2-thiazole-4-carboxamide] | 6.96 | 5.00 | 5.96

Now from value to molecule:

Row | pIC50 [1] | pIC50 (HeLa) | pIC50 [2] | Compound
7 | 6.10 | 5.00 | 4.77 | Cc1nsc(Nc2cnc3ccccc3n2)c1C(=O)Nc1cccc(C(=O)N2CCN(CCN(C)C)CC2)c1 [Example 90, N-[3-({4-[2-(Dimethylamino)ethyl]piperazin-1-yl}carbonyl)-phenyl]-3-methyl-5-(quinoxalin-2-ylamino)-1,2-thiazole-4-carboxamide]
8 | 6.60 | 5.03 | 5.28 | C#CCNC(=O)c1cccc(NC(=O)c2c(C)nsc2Nc2cnc3ccccc3n2)c1 [Example 73, 3-Methyl-N-[3-(prop-2-yn-1-ylcarbamoyl)phenyl]-5-(quinoxalin-2-ylamino)-1,2-thiazole-4-carboxamide]
9 | 5.85 | 5.00 | 4.70 | Cc1nsc(Nc2cnc3ccccc3n2)c1C(=O)Nc1cccc(C(=O)NCCN2CCOCC2)c1 [Example 71, 3-Methyl-N-(3-{[2-(morpholin-4-yl)ethyl]carbamoyl}-phenyl)-5-(quinoxalin-2-ylamino)-1,2-thiazole-4-carboxamide]
10 | 7.28 | 5.00 | 5.00 | Cc1nsc(Nc2cnc3ccccc3n2)c1C(=O)Nc1cccc(C(=O)NCCN2CCCC2)c1 [Example 72, 3-Methyl-N-(3-{[2-(pyrrolidin-1-yl)ethyl]carbamoyl}phenyl)-5-(quinoxalin-2-ylamino)-1,2-thiazole-4-carboxamide]
11 | 7.30 | 5.00 | 6.03 | Cc1nsc(Nc2cnc3ccccc3n2)c1C(=O)Nc1cccc(C(=O)N2CCCN(C)CC2)c1 [Example 83, 3-Methyl-N-{3-[(4-methyl-1,4-diazepan-1-yl)carbonyl]-phenyl}-5-(quinoxalin-2-ylamino)-1,2-thiazole-4-carboxamide]
12 | 7.38 | 5.00 | 6.64 | COCCN1CCN(C(=O)c2cccc(NC(=O)c3c(C)nsc3Nc3cnc4ccccc4n3)c2)CC1 [Example 91, N-(3-{[4-(2-Methoxyethyl)piperazin-1-yl]carbonyl}phenyl)-3-methyl-5-(quinoxalin-2-ylamino)-1,2-thiazole-4-carboxamide]
13 | 5.54 | 5.00 | 4.96 | Cc1nsc(Nc2cnc3ccccc3n2)c1C(=O)Nc1cccc(C(=O)N2CCN(C(=O)N(C)C)CC2)c1 [Example 89, N,N-Dimethyl-4-[3-({[3-methyl-5-(quinoxalin-2-ylamino)-1,2-thiazol-4-yl]carbonyl}amino)benzoyl]piperazine-1-carboxamide]
